{"source": "paper PMC4004761", "about": "(Journal of medicinal chemistry, 2013)", "key": {"rat Nav1.2": {"target": "rat Nav1.2 (Rattus norvegicus, UniProt P04775)", "sequence (P04775 whole entry)": "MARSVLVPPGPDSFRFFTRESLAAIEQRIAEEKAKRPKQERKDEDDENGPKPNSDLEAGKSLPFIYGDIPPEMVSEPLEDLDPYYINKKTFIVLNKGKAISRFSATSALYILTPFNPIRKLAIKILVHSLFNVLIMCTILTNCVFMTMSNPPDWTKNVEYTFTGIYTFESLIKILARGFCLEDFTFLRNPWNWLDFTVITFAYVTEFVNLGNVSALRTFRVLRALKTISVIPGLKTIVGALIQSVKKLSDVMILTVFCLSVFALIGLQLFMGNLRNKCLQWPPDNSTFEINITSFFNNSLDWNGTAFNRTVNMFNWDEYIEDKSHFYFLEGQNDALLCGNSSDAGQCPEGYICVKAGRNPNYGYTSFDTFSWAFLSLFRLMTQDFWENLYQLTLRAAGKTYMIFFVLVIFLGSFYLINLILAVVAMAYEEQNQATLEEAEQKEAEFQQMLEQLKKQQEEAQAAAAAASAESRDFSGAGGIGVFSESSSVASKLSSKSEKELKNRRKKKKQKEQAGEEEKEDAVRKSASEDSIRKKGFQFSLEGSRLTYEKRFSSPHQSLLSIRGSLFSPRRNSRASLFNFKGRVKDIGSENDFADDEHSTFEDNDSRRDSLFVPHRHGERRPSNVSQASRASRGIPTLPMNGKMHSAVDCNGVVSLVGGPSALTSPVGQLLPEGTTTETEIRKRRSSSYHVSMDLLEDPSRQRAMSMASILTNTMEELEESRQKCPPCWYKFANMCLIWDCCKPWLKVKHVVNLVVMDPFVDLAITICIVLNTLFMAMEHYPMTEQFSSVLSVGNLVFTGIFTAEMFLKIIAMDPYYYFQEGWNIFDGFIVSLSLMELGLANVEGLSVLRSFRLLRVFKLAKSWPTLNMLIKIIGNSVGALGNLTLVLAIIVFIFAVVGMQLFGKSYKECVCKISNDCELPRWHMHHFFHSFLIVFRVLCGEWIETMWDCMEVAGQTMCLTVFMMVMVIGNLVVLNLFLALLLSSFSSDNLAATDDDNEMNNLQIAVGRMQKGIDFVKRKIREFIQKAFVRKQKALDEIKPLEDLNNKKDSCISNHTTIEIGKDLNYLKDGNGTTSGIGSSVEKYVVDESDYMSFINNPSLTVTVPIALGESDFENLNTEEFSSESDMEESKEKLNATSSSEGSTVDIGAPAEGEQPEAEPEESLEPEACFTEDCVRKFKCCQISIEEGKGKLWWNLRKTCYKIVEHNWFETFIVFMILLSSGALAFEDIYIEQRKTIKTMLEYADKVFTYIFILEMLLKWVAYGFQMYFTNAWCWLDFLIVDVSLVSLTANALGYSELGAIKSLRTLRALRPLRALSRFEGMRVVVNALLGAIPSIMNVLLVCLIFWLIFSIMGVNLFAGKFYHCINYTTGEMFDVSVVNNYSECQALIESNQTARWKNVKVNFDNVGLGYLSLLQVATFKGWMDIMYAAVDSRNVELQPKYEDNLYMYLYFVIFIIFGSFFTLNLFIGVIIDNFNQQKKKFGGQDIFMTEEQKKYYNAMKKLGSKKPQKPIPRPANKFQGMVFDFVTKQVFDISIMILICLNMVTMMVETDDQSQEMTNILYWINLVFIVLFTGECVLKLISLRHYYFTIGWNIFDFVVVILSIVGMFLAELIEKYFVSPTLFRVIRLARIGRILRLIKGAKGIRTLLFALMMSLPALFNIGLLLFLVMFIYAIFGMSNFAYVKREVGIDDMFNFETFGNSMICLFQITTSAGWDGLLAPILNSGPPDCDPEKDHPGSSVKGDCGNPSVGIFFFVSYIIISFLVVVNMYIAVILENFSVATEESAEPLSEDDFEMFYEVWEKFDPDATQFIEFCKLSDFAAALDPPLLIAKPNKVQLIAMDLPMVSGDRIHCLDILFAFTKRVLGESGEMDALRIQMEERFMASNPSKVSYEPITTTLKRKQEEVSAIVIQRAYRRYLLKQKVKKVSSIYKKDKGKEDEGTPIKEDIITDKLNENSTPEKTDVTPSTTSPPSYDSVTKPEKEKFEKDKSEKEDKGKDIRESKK", "assay": "Voltage-gated Na+ channel whole-cell patch-clamp in CHL1610 cells", "type": "cell-based"}, "rat KCNQ2": {"target": "rat KCNQ2 (Rattus norvegicus, UniProt O88943)", "sequence (O88943 whole entry)": "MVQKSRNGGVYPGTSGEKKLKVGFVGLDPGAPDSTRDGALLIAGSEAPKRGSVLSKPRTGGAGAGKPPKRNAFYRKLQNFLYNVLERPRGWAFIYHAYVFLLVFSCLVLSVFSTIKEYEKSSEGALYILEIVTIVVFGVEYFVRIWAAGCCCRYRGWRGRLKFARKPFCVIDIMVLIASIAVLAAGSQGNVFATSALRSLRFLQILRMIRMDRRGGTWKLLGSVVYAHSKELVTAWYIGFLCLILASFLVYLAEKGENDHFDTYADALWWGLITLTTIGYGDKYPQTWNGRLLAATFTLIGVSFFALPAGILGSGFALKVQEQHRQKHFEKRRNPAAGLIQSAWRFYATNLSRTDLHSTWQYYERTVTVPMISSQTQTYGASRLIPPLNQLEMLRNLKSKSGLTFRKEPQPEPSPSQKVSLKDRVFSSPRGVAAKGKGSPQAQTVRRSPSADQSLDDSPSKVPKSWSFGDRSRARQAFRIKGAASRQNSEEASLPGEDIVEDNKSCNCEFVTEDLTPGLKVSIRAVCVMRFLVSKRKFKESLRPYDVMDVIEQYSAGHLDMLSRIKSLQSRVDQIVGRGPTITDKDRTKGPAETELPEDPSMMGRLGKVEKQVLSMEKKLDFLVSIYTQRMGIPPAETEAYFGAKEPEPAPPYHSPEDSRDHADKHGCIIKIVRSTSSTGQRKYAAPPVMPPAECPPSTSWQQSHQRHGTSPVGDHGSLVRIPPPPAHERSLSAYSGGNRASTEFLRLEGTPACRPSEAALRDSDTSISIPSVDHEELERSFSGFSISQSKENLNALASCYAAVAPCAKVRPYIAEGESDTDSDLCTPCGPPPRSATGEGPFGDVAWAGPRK", "assay": "KCNQ2 whole-cell patch-clamp, M-current protocol", "type": "cell-based"}, "kappa-opioid receptor": {"target": "kappa-opioid receptor (Homo sapiens, UniProt P41145)", "sequence (P41145 whole entry)": "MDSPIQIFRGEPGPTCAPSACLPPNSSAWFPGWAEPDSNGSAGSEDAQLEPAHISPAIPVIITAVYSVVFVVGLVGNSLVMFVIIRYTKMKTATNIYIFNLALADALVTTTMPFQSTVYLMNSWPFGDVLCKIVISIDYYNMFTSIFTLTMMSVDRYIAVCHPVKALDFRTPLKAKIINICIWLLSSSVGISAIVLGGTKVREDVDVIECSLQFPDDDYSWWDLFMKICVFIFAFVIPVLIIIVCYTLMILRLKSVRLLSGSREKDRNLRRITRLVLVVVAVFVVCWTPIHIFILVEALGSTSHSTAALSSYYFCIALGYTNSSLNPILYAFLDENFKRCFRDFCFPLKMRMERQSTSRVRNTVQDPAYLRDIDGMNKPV", "assay": "Cerep receptor-binding panel: kappa opioid", "settings": "read-out: Inhibition, kappa-opioid receptor"}, "[1]": {"system": "kindled seizures (seizure score, after-discharge duration)", "settings": "for Effect in rat kindling model: Figure 1"}, "[2]": {"system": "maximal electroshock seizure (hind-limb tonic extension)", "settings": "mouse"}, "[3]": {"system": "maximal electroshock seizure (hind-limb tonic extension)", "settings": "in vivo, cited from earlier work"}, "[4]": {"system": "maximal electroshock seizure (hind-limb tonic extension)", "settings": "at 2 h (time of peak effect); cited from earlier work"}, "[5]": {"system": "chemically-induced forelimb clonic seizures", "settings": "mouse, cited from earlier work"}, "[6]": {"system": "kindled seizures (seizure score, after-discharge duration)", "settings": "cited from earlier work"}, "sound-induced seizures": {"system": "sound-induced seizures", "assay": "animal or person", "settings": "Mus musculus, ip, read-out: Audiogenic seizure ED50"}}, "note": "Like-named read-outs stand apart in the source and are kept apart here. Marks after values point to notes of the source that are not given here."}
{"smiles": "NS(=O)(=O)NC[C@H]1COc2cc(Cl)ccc2O1", "note": "[compound 4, (2S)-(–)-N-((6-Chloro-2,3-dihydrobenzo[1,4]dioxin-2-yl)methyl)sulfamide]", "values": [{"measurement": "Nav1.2 inhibition at −107 mV", "setting": "rat Nav1.2; at −107 mV", "result": "virtually no inhibition"}, {"measurement": "Increase in KCNQ2 current", "setting": "rat KCNQ2; 300 μM, −50 mV, N = 5 cells", "result": 2.4, "unit": "fold"}, {"measurement": "Increase in decay kinetics", "setting": "rat KCNQ2; 300 μM, −50 mV, N = 5 cells", "result": 2, "unit": "fold"}, {"measurement": "Increase in KCNQ2 current", "setting": "rat KCNQ2; 750 μM", "result": 4, "unit": "fold"}, {"measurement": "inhibition at 10 µM", "setting": "kappa-opioid receptor", "result": 45, "unit": "%"}, {"measurement": "Effect on after-discharge duration", "setting": "[1]; rat, i.p., p = 0.07", "result": "no statistically significant effect"}]}
{"smiles": "NS(=O)(=O)NC[C@H]1COc2c(Cl)cccc2O1", "note": "[10a]", "values": [{"measurement": "MES, po, effect (animals responding / animals tested)", "setting": "[2]; 100 mg/kg po, 0.5 h", "result": "0/5"}, {"measurement": "MES, po, effect (animals responding / animals tested)", "setting": "[2]; 100 mg/kg po, 2 h", "result": "1/5"}]}
{"smiles": "NCC1(CC(=O)O)CCCCC1", "note": "[gabapentin]", "values": [{"measurement": "Effect on Na+ channel activity", "setting": "rat Nav1.2; up to 300 μM", "result": "no effect"}]}
{"smiles": "NS(=O)(=O)NCc1csc2ccccc12", "note": "[compound 3, N-((benzo[b]thien-3-yl)methyl)sulfamide]", "values": [{"measurement": "Oral mouse MES ED50", "setting": "[3]", "result": "119 ^c mg/kg"}, {"measurement": "MES, po, effect (animals responding / animals tested)", "setting": "[3]; mouse, 100 mg/kg", "result": "0.5, 1/5; 2, 3/5"}, {"measurement": "Rat MES oral ED50", "setting": "[4]", "result": 34, "unit": "mg/kg"}, {"measurement": "ED50 vs s.c. Bic-induced forelimb clonic seizures", "setting": "[5]; ip, […]", "result": 156, "unit": "mg/kg"}, {"measurement": "ED50 vs s.c. PTZ-induced forelimb clonic seizures", "setting": "[5]; ip, […]", "result": 161, "unit": "mg/kg"}, {"measurement": "ED50 vs s.c. Pic-induced forelimb clonic seizures", "setting": "[5]; ip, […]", "result": 106, "unit": "mg/kg"}, {"measurement": "Rats with complete absence of seizure activity", "setting": "[6]; maximally effective dose, time of peak effect", "result": "six out of eight"}, {"measurement": "Reduction of after-discharge duration", "setting": "[6]; rat, i.p., p < 0.01", "result": 64, "unit": "%"}, {"measurement": "Rats with seizure score reduced from 5 to 0", "setting": "[6]; rat, i.p., p = 0.0001", "result": "six out of eight"}, {"measurement": "Time of peak activity", "setting": "[6]; rat, i.p., sustained at 1 h", "result": 15, "unit": "min"}]}
{"smiles": "CCCC(CCC)C(=O)O", "note": "[valproic acid]", "values": [{"measurement": "Effect in rat kindling model", "setting": "[1]; maximally effective dose", "result": "significantly suppressed seizure activity"}, {"measurement": "Doses giving protection similar to 3 (range of neurotoxic effects)", "setting": "[1]; rat kindling", "result": "> 300", "unit": "mg/kg"}, {"measurement": "ED50 in chemically-induced seizures (comparators)", "setting": "[5]", "result": "> 200", "unit": "mg/kg"}]}
{"smiles": "CCCCNS(N)(=O)=O", "note": "[BuNHSO2NH2]", "values": [{"measurement": "Activity in the MES test", "setting": "[3]; mouse", "result": "not active"}]}
{"smiles": "NC(=O)N1c2ccccc2C=Cc2ccccc21", "note": "[carbamazepine]", "values": [{"measurement": "Effect in rat kindling model", "setting": "[1]; maximally effective dose", "result": "significantly suppressed seizure activity"}, {"measurement": "Doses giving protection similar to 4 (range of neurotoxic effects)", "setting": "[1]; rat kindling", "result": "> 26", "unit": "mg/kg"}]}
{"smiles": "CC1(C)O[C@@H]2[C@@H](CO[C@@]3(COS(N)(=O)=O)OC(C)(C)O[C@@H]23)O1", "note": "[compound 1, topiramate]", "values": [{"measurement": "Rats with complete protection", "setting": "[1]; maximally effective dose", "result": "one out of eight"}, {"measurement": "Effect in rat kindling model", "setting": "[1]; maximally effective dose", "result": "not effective"}, {"measurement": "Oral mouse MES ED50", "setting": "[3]", "result": "43.8 ^f mg/kg"}, {"measurement": "MES, po, effect (animals responding / animals tested)", "setting": "[3]; mouse", "result": "0.5, 2/5; 2, 4/5 ^l"}, {"measurement": "ED50", "setting": "sound-induced seizures", "result": 4.2, "unit": "mg/kg"}]}
{"smiles": "COc1cccc2c1O[C@@H](CNS(N)(=O)=O)CO2", "note": "[10g]", "values": [{"measurement": "MES, po, effect (animals responding / animals tested)", "setting": "[2]; 100 mg/kg po, 0.5 h", "result": "0.5, 0/5; 2, 0/5 ^j"}, {"measurement": "MES, po, effect (animals responding / animals tested)", "setting": "[2]; 100 mg/kg po, 2 h", "result": "0.5, 0/5; 2, 0/5 ^j"}]}
{"smiles": "CCC1(C)CC(=O)NC1=O", "note": "(centres unmarked) [ethosuximide]", "values": [{"measurement": "Effect in rat kindling model", "setting": "[1]; maximally effective dose", "result": "not effective"}]}
{"smiles": "CC[C@@H](C(N)=O)N1CCCC1=O", "note": "[levetiracetam]", "values": [{"measurement": "ED50 in chemically-induced seizures (comparators)", "setting": "[5]", "result": "> 540", "unit": "mg/kg"}]}
{"smiles": "NS(=O)(=O)NCC1Oc2ccc(Cl)cc2O1", "note": "(centres unmarked) [11b]", "values": [{"measurement": "MES, po, effect (animals responding / animals tested)", "setting": "[2]; 100 mg/kg po, 0.5 h", "result": "0.5, 0/5; 2, 0/5"}, {"measurement": "MES, po, effect (animals responding / animals tested)", "setting": "[2]; 100 mg/kg po, 2 h", "result": "0.5, 0/5; 2, 0/5"}]}
{"smiles": "CN(C)S(=O)(=O)NCC1COc2ccccc2O1", "note": "(centres unmarked) [compound 7, N-((2,3-Dihydrobenzo[1,4]dioxin-2-yl)methyl)-N’,N’-dimethylsulfamide]", "values": [{"measurement": "MES, po, effect (animals responding / animals tested)", "setting": "[2]; 300 mg/kg po, 0.5 h", "result": "4/5"}, {"measurement": "MES, po, effect (animals responding / animals tested)", "setting": "[2]; 300 mg/kg po, 2 h", "result": "0/5"}]}
{"smiles": "O=C1NC(=O)C(c2ccccc2)(c2ccccc2)N1", "note": "[phenytoin]", "values": [{"measurement": "Effect in rat kindling model", "setting": "[1]; maximally effective dose", "result": "significantly suppressed seizure activity"}]}
{"smiles": "NS(=O)(=O)NCc1ccccc1", "note": "[PhCH2NHSO2NH2]", "values": [{"measurement": "Mouse MES effect (animals protected / tested)", "setting": "[3]; 100 mg/kg", "result": "3/3"}, {"measurement": "Mouse MES effect (animals protected / tested)", "setting": "[3]; 300 mg/kg", "result": "3/3"}]}
